Test results as given in PubChem BioAssay AID1963981 (Molecular Pharmacology Branch, DTP, NCI, 2024).

Test system: 354836-022-R-J1-PDC multicell spheroid viability
Assay: Anticancer human tumor 354836-022-R-J1-PDC patient-derived head and neck squamous cell carcinoma cell line growth inhibition [PI3K]
Conditions: for viability, T/C: stronger effect = lower value
Source text: Combinatorial screen of targeted agents with the PI3K inhibitors inavolisib, alpelisib, duvelisib, and copanlisib in multi-cell type tumor spheroids
A high-throughput screen of multi-cell type tumor spheroids was designed to identify active combinations of targeted small molecules and PI3K pathway inhibitors. Complex spheroids include a stromal component modeled by human endothelial cells (HUVEC) and fibroblasts modeled by human mesenchymal stem cells (MSCs). The concentration ranges selected for each drug and investigational agent were based upon clinically achievable concentrations if the clinical Cmax of the agent was known.
Compounds. The drugs and investigational agents: inavolisib (NSC800729), alpelisib (NSC765974), duvelisib (NSC772469), copanlisib (NSC816437), ipatasertib (NSC767898), afuresertib (NSC778305), talazoparib (NSC767125), sapanisertib (NSC764658), selumetinib (NSC741078), tovorafenib (DAY101, NSC766906), vemurafenib (NSC761431), ravoxertinib (NSC781343), sotorasib (NSC818433), MRTX1133 (NSC 836407), abemaciclib (NSC 768073), palbociclib (NSC758247), venetoclax (NSC 766270), SY5609 (NSC837396), enzalutamide (NSC755605), and darolutamide (NSC825331), were obtained from the National Cancer Institute (NCI) Developmental Therapeutics Program Chemical Repository. The FDA-approved anticancer drug set is available from the NCI Developmental Therapeutics Program. […] The stock solutions were prepared in dimethyl sulfoxide (DMSO, Sigma-Aldrich, St. Louis, MO, cat. D2650) at 800-fold the tested concentration and stored at -70 degrees C prior to their use. All drugs and investigational agents were tested over a range starting from a high concentration at or near the clinical Cmax and decreasing in half-log increments. If the clinical Cmax for an agent had not been determined, the highest concentration tested was 10 microM.
Cell Culture. All cells were maintained in an incubator at 37 degrees C and 5% CO2 with 95% humidity. The PDC lines were cultured according to standard operating procedures established by the NCI PDMR (https://pdmr.cancer.gov/sops/default.htm). All PDCs were thawed and cultured in Matrigel-coated flasks prepared with a working solution of 1X Ham's F-12 nutrient mix, without supplementation (Invitrogen, Waltham, MA, cat. 11765054), 100 U/mL penicillin-streptomycin (Invitrogen, cat. 15140122), and 2.5% Matrigel (Corning Inc., Corning, NY, cat. 354248) for the first three passages. The 354836-022-R-J1-PDC, 475296-252-R-J1-PDC, and 997726-040-R-J2-PDC lines were cultured in 6A media, which includes advanced DMEM/F-12 (Thermo Fisher Scientific, cat. 12634028), 10 mM HEPES (Thermo Fisher Scientific, cat. 15630080), 1X GlutaMAX supplement (Thermo Fisher Scientific, cat. 35050061), 0.1 mg/mL primocin (InvivoGen, San Diego, CA, cat. ant-pm-2), 10% defined fetal bovine serum, heat inactivated (HyClone Laboratories Inc., Logan, UT, cat. SH30070.03HI), 50% L-WRN conditioned media (ATCC, cat. CRL-3276), 1.25 mM N-Acetyl-L-cysteine (Sigma-Aldrich, cat. A9165), 10 mM nicotinamide (Sigma-Aldrich, cat. N0636), 1X B-27 supplement (Thermo Fisher Scientific, cat. 17504044), 1X N-2 supplement (Thermo Fisher Scientific, cat. 17502048), and 10 microM Y-27632 dihydrochloride (Tocris Bioscience, Bristol, United Kingdom, cat. 1254). The 624824-186-R-J2-PDC line was cultured in 6C/Colon 1B media, which includes all 6A media components plus 50 ng/mL human EGF recombinant protein (Thermo Fisher Scientific, cat. PHG0311). […]

[1] = curve of first compound, second compound 0.0316 µM
[2] = curve of first compound, second compound 0.1 µM
[3] = curve of first compound, second compound 0.316 µM
[4] = curve of first compound, second compound 1 µM
[5] = second compound 0.0316 µM, first compound 0.0316 µM
[6] = second compound 0.0316 µM, first compound 0.1 µM
[7] = second compound 0.0316 µM, first compound 0.316 µM
[8] = second compound 0.0316 µM, first compound 1 µM
[9] = second compound 0.0316 µM, first compound 3.16 µM
[10] = second compound 0.0316 µM, first compound 10 µM
[11] = second compound 0.1 µM, first compound 0.0316 µM
[12] = second compound 0.1 µM, first compound 0.1 µM
[13] = second compound 0.1 µM, first compound 0.316 µM
[14] = second compound 0.1 µM, first compound 1 µM
[15] = second compound 0.1 µM, first compound 3.16 µM
[16] = second compound 0.1 µM, first compound 10 µM
[17] = second compound 0.316 µM, first compound 0.0316 µM
[18] = second compound 0.316 µM, first compound 0.1 µM
[19] = second compound 0.316 µM, first compound 0.316 µM
[20] = second compound 0.316 µM, first compound 1 µM
[21] = second compound 0.316 µM, first compound 3.16 µM
[22] = second compound 0.316 µM, first compound 10 µM
[23] = second compound 1 µM, first compound 0.0316 µM
[24] = second compound 1 µM, first compound 0.1 µM
[25] = second compound 1 µM, first compound 0.316 µM
[26] = second compound 1 µM, first compound 1 µM
[27] = second compound 1 µM, first compound 3.16 µM
[28] = second compound 1 µM, first compound 10 µM
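Also: spheroids exposed to agents for seven days before the viability read.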

Cn1nccc1Nc1nccc(-c2ccn(C(CO)c3ccc(Cl)c(F)c3)c(=O)c2)n1 (stereo unspecified) + COc1c(OCCCN2CCOCC2)ccc2c3n(c(=NC(=O)c4cnc(N)nc4)nc12)CCN3 showed an IC50 (curve of first compound, second compound 0.00316 µM) greater than 10 µM, an IC50 (curve of first compound, second compound 0.01 µM) greater than 10 µM and an IC50 [1] greater than 10 µM. The IC50 [2] was 0.0736 µM, the IC50 [3] was less than 0.0316 µM and the IC50 [4] was less than 0.0316 µM. For the same molecule, the viability, T/C (second compound 0.00316 µM, first compound 0.0316 µM) was 97%, the viability, T/C (second compound 0.00316 µM, first compound 0.1 µM) was 98.1% and the viability, T/C (second compound 0.00316 µM, first compound 0.316 µM) was 94.2%. The viability, T/C (second compound 0.00316 µM, first compound 1 µM) was 89.3%, the viability, T/C (second compound 0.00316 µM, first compound 3.16 µM) was 92.1% and the viability, T/C (second compound 0.00316 µM, first compound 10 µM) was 82.7%. The viability, T/C (second compound 0.01 µM, first compound 0.0316 µM) was 88.5%, the viability, T/C (second compound 0.01 µM, first compound 0.1 µM) was 99% and the viability, T/C (second compound 0.01 µM, first compound 0.316 µM) was 88%. The viability, T/C (second compound 0.01 µM, first compound 1 µM) was 94%, the viability, T/C (second compound 0.01 µM, first compound 3.16 µM) was 91.9% and the viability, T/C (second compound 0.01 µM, first compound 10 µM) was 97.6%. The viability, T/C [5] was 83.4%, the viability, T/C [6] was 69.7% and the viability, T/C [7] was 76%. The viability, T/C [8] was 84.7%, the viability, T/C [9] was 87.2% and the viability, T/C [10] was 64.2%. For the same molecule, the viability, T/C [11] was 49.1%, the viability, T/C [12] was 49.2% and the viability, T/C [13] was 46.9%. The viability, T/C [14] was 49.6%, the viability, T/C [15] was 44.8% and the viability, T/C [16] was 32.2%. The viability, T/C [17] was 11.8%, the viability, T/C [18] was 11.1% and the viability, T/C [19] was 11.1%. It also gave a viability, T/C [20] of 11.4%, a viability, T/C [21] of 6.95% and a viability, T/C [22] of 2.26%. For the same molecule, the viability, T/C [23] was 1.52%, the viability, T/C [24] was 1.16% and the viability, T/C [25] was 1.02%. It also gave a viability, T/C [26] of 1.12%, a viability, T/C [27] of 1.77% and a viability, T/C [28] of 0.33%.

In the case of CC(Nc1ccc2c(c1)OCCn1cc(N3C(=O)OCC3C(F)F)nc1-2)C(N)=O (stereo unspecified), the viability, T/C (compound 0.00316 µM) is reported as 99.7% [middle of 8 runs], the viability, T/C (compound 0.01 µM) is reported as 96.8% [middle of 8 runs] and the viability, T/C (compound 0.0316 µM) is reported as 99.1% [middle of 8 runs]. The viability, T/C (compound 0.1 µM) was 87.8% [middle of 7 runs], the viability, T/C (compound 0.316 µM) was 76.5% [middle of 8 runs] and the viability, T/C (compound 1 µM) was 53.6% [middle of 8 runs]. The IC50 (compound alone, run of 06/12/2023) was greater than 1 µM.

CCCS(=O)(=O)Nc1ccc(F)c(C(=O)c2c[nH]c3ncc(-c4ccc(Cl)cc4)cc23)c1F + CC(Nc1ncnc2nc[nH]c12)c1cc2cccc(Cl)c2c(=O)n1-c1ccccc1 was tested, and the IC50 [1] was 5.95 µM, the IC50 [2] was 5.79 µM and the IC50 [3] was 6.71 µM. For the same molecule, the IC50 [4] was 5.5 µM, the IC50 (curve of first compound, second compound 3.16 µM) was 6.29 µM and the IC50 (curve of first compound, second compound 10 µM) was 5.98 µM. For the same molecule, the viability, T/C [5] was 94.8%, the viability, T/C [6] was 108% and the viability, T/C [7] was 98.4%. For the same molecule, the viability, T/C [8] was 107%, the viability, T/C [9] was 88.8% and the viability, T/C [10] was 17.8%. For the same molecule, the viability, T/C [11] was 99.8%, the viability, T/C [12] was 99.8% and the viability, T/C [13] was 109%. The viability, T/C [14] was 105%, the viability, T/C [15] was 83.8% and the viability, T/C [16] was 19.7%. It also gave a viability, T/C [17] of 98%, a viability, T/C [18] of 106% and a viability, T/C [19] of 125%. The viability, T/C [20] was 104%, the viability, T/C [21] was 110% and the viability, T/C [22] was 18.9%. The viability, T/C [23] was 103%, the viability, T/C [24] was 93.9% and the viability, T/C [25] was 111%. It also gave a viability, T/C [26] of 94.5%, a viability, T/C [27] of 81.1% and a viability, T/C [28] of 16.6%. For the same molecule, the viability, T/C (second compound 3.16 µM, first compound 0.0316 µM) was 114%, the viability, T/C (second compound 3.16 µM, first compound 0.1 µM) was 111% and the viability, T/C (second compound 3.16 µM, first compound 0.316 µM) was 105%. The viability, T/C (second compound 3.16 µM, first compound 1 µM) was 106%, the viability, T/C (second compound 3.16 µM, first compound 3.16 µM) was 92.9% and the viability, T/C (second compound 3.16 µM, first compound 10 µM) was 21.1%. It also gave a viability, T/C (second compound 10 µM, first compound 0.0316 µM) of 89.7%, a viability, T/C (second compound 10 µM, first compound 0.1 µM) of 96% and a viability, T/C (second compound 10 µM, first compound 0.316 µM) of 94.2%. For the same molecule, the viability, T/C (second compound 10 µM, first compound 1 µM) was 88.7%, the viability, T/C (second compound 10 µM, first compound 3.16 µM) was 92.6% and the viability, T/C (second compound 10 µM, first compound 10 µM) was 16%.
